In patent publication US6410523B1, “Vitamin D derivatives substituted at the 2beta-position” (Chugai Seiyaku Kabushiki Kaisha, priority 1998, dated 2002):

Key:
[1] = biological target: T1, rat plasma vitamin D binding protein (Rattus norvegicus, UniProt P04276); experiment: Affinity for rat plasma vitamin D binding protein (3H-25-hydroxyvitamin D3 competition, dextran coated charcoal); conditions: for 50% binding ability: amount of the test compound providing B/B0=0.5, 3H-25-hydroxyvitamin D3 as radioligand
T1 construct: from tissue; host or cells: rat plasma
T1 sequence (P04276 17-476): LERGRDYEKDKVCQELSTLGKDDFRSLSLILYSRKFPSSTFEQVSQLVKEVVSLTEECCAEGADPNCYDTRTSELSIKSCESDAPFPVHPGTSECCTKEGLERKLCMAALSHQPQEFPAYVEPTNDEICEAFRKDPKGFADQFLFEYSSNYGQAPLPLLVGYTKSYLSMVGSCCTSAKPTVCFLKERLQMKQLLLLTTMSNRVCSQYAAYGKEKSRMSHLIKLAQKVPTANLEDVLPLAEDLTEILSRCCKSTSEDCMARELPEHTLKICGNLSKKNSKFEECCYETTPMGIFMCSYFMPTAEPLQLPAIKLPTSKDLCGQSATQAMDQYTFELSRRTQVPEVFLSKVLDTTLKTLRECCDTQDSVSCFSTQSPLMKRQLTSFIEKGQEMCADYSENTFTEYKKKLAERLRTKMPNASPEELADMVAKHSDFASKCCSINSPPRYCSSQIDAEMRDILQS
Protocol: A solution of a chick small intestine vitamin D receptor, or a solution of a rat plasma vitamin D binding protein was added, and the resulting mixture was left to stand. Then, a dextran coated charcoal solution was added, and the mixture was left to stand in ice cooling, and centrifuged. To the supernatant, a liquid scintillator was added, and the mixture was measured for radioactivity. B/B0 (B=the value of radioactivity measured upon addition of the test compound, B0=the value of radioactivity measured without addition of the test compound) was calculated to find the concentration of the test compound at which B/B0=0.5.
(§1) (50% binding ability refers to the amount of the test compound providing B/B0=0.5)

[2] = biological target: T2, chick small intestine vitamin D receptor (Gallus gallus, UniProt O42392); experiment: Affinity for chick small intestine vitamin D receptor (3H-1α,25-dihydroxyvitamin D3 competition, dextran coated charcoal); format: binding; conditions: amount of the test compound providing B/B0=0.5; 3H-1α,25-dihydroxyvitamin D3 as radioligand
T2 construct: A solution of a chick small intestine vitamin D receptor; from tissue; host or cells: chick small intestine
T2 sequence (O42392 1-451): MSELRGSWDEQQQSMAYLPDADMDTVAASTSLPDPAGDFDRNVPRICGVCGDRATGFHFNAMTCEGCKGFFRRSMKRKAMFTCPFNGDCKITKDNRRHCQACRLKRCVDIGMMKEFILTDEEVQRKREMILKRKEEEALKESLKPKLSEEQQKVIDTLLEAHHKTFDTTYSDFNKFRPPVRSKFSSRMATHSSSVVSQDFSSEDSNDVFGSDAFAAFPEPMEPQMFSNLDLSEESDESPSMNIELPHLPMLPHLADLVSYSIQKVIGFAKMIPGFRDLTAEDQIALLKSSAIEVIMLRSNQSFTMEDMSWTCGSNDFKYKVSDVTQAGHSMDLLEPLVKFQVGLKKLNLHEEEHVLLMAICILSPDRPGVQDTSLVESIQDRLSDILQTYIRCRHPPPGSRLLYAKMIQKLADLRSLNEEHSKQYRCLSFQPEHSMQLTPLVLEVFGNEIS
Protocol: A solution of a chick small intestine vitamin D receptor, or a solution of a rat plasma vitamin D binding protein was added, and the resulting mixture was left to stand. Then, a dextran coated charcoal solution was added, and the mixture was left to stand in ice cooling, and centrifuged. To the supernatant, a liquid scintillator was added, and the mixture was measured for radioactivity.
as §1

| Ratio ([1]; affinity relative to 1,25-dihydroxyvitamin D3 = 1) | 50% binding ability [1] | 50% binding ability [2] | SMILES |
| --- | --- | --- | --- |
| 129 | 0.209 ng |  | C=C1CC[C@H](O)C/C1=C/C=C1\CCC[C@]2(C)[C@@H]([C@H](C)CCCC(C)(C)O)CC[C@@H]12 [25-Hydroxyvitamin D3, 25-hydroxyvitamin D3] |
|  | 4 ng | 0.455 ng | C=C1/C(=C\C=C2/CCC[C@@]3(C)C2CC[C@@H]3[C@H](C)CCCC(C)(C)O)CC(O)C(OCCC(=O)OC)C1O (stereo partly drawn) [Compound 2, 2β-(2-methoxycarbonylethyloxy)-1α, 3β,25-trihydroxy-9,10-secocholesta-5,7,10(19)-triene] |
